Test results reported in patent US20170275287A1, “NOVEL N2, N4, N7, 6-TETRASUBSTITUTED PTERIDINE-2,4,7-TRIAMINE AND 2, 4, 6, 7-TETRASUBSTITUTED PTERIDINE COMPOUNDS AND METHODS OF SYNTHESIS AND USE THEREOF” (Janus Biotherapeutics, Inc., priority 2014, published 2017).
Like-named read-outs stand apart in the source and are kept apart here.

Key:
[1] = A-B permeability, CaCo-2 cells (CEREP); type: in vitro ADME; settings: human, pH 6.5/7.4
Method: (§1) Preliminary screening measures were conducted by CEREP. All values fall within acceptable limits (Table 5). Solubility assays where performed by CEREP, Seattle, Wash., according to Lipinski, C. A. et al., 1997, Adv. Drug Del. Rev., 46:3-26. Protein binding assays where performed by CEREP, Seattle, Wash., according to Banker, M. J. et al., 2003, J. Pharm. Sci., 92:967-974. Permeability assays where performed by CEREP, Seattle, Wash. according to Hildalgo, I. J., 1998, Gastroenterology, 96:736-749. Metabolic stability assays where performed by CEREP, Seattle, Wash., according to Obach, R. S. et al., 1997, J. Pharmacol. Exp. Ther., 283:46-58. P-glycoprotein inhibition assays where performed by CEREP, Seattle, Wash., according to Polli, J. W. et al., 2001, J. Pharm. Exp. Ther., 299:620-628. Cell viability assays where performed by CEREP, Seattle, Wash., according to Mosmann, T., 1983, J. Immunol. Met. 65:55-62. hERG automated patch clamp assays where performed by CEREP, Seattle, Wash., according to Mathes, C., 2006, Expert Opin. Ther. Targets, 10:230-241.

[2] = test system: M (non-selective) Muscarinic Receptor; test: Receptor cross-reactivity binding panel (CEREP)
Description: (§2) The receptor cross-reactivity profile is composed of 71 binding and 27 enzyme assays. The binding assay panel is broadly defined with roughly an equal number of selective, central and peripheral therapeutically relevant targets. The enzyme assay panel includes the most representative targets from diverse enzyme families with a particular focus on phosphatases and specific enzymes involved in cell cycle regulation. Assays where performed by CEREP, Seattle, Wash., with protocols similar to Cordeaux, Y. et al., 2004 Brit. J. Pharmacol., 143:705-714. JB6121 was tested for receptor cross reactivity at 10 μM for approximately 100 receptors and enzymes. Any % inhibition greater than 50% (IC50<10 μM) is highlighted below in Table 7.

[3] = PK/PD study: whole blood JB6121 after 7 days oral dosing; type: in vivo, Sprague-Dawley rats; settings: for AUC(0-t)/D / Cmax/D / AUC(0-t) / Cmax / Tmax / AUC / half-life: Day 7; for AUC(0-t) / Cmax / Tmax / concentration at 2 h / concentration at 3 h / concentration at 4 h / concentration at 5 h / AUC / half-life: Sprague-Dawley, rat, whole blood; for concentration at 2 h: Day 7, 2 h; for concentration at 3 h: Day 7, 3 h; for concentration at 4 h: Day 7, 4 h; for concentration at 5 h: Day 7, 5 h; for AUC: read-out: AUC Extrap; for half-life: read-out: t½ (converted)
Method: The objective of this study was to collect serum following ODN CpG 1668 administration and to determine the pharmacokinetics of JB6121 following oral administration to Sprague-Dawley rats for 7 days. There was a pre-test to establish the appropriate agonist dose for a TLR9 ligand, CpG DNA ODN 1668, in rats using serum IL-12 as the monitored cytokine, groups 1-3, see table 6. Whole blood samples for serum were collected terminally from each animal 3 hours following dosing with ODN CpG 1668. Serum IL-12 was determined by ELISA, data not shown. An agonist dose of lmg/kg was selected for the next phase of the study. For groups administered JB6121 (Groups 4-7), formulations were corrected for base/salt components and not corrected for purity. On the initial day of dose administration, JB6121 formulations were prepared using sterile PBS to the adjusted target dosing concentrations using a factor of 0.8265 to correct for salt content. Dosing was performed as outlined in the following Table 9.
Animals were assigned to four groups (groups 4-7) and administered JB6121 at 0.39, 1.56, 6.25, or 25 mg/kg in a volume of […] once per day by oral gavage for 7 days. On Day 7, two hours following the JB6121 dose (approximate Cmax), ODN CpG 1668 was administered as a single IP dose at 1 mg/kg in a volume of 1 mL/kg. Whole blood samples for bioanalysis and serum samples for serum cytokine analysis were collected by tail vein bleeding or terminally by cardiac puncture at t=2, 3, 4 and 5 h.

LogD, pH 7.4 = type: physicochemical
[4] = target: COMT (catechol-O-methyl transferase) (Sus scrofa, UniProt D3K5L3); test: Receptor cross-reactivity enzyme panel (CEREP); type: biochemical; settings: read-out: % Ligand Inhibition, COMT
Description: as §2

[5] = Protein binding, human plasma (CEREP); type: in vitro ADME; settings: read-out: Protein Binding, Human Plasma, % bound (converted)
Method: as §1

CYP2B6 = target: T1, CYP2B6 (Homo sapiens, UniProt P20813); test: Cytochrome p450 inhibition (CEREP); type: in vitro ADME; settings: 10 μM
T1 construct: CEREP (contract laboratory)
Method: (§3) JB6121 was also tested for CYP inhibition, see Table 6 below. Assays where performed by CEREP, Seattle, Wash., according to Atkinson, A et al., 2005, Drug Metab. Dispos. 33:1637-1647.

CYP2C19 = target: T2, CYP2C19 (Homo sapiens, UniProt P33261); test: Cytochrome p450 inhibition (CEREP); type: in vitro ADME; settings: 10 μM
T2 construct: CEREP (contract laboratory)
Method: as §3

CYP2C9 = target: T3, CYP2C9 (Homo sapiens, UniProt P11712); test: Cytochrome p450 inhibition (CEREP); type: in vitro ADME; settings: 10 μM
T3 construct: CEREP (contract laboratory)
Method: as §3

Sequence of COMT (catechol-O-methyl transferase) (D3K5L3 entry or part of it): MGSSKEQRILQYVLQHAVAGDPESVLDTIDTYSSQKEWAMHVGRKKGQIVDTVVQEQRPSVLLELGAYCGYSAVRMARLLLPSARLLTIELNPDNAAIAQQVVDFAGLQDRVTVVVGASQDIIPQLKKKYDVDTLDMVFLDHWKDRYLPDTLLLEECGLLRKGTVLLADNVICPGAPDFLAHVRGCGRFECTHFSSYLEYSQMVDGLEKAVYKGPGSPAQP
T3 sequence (P11712 whole entry): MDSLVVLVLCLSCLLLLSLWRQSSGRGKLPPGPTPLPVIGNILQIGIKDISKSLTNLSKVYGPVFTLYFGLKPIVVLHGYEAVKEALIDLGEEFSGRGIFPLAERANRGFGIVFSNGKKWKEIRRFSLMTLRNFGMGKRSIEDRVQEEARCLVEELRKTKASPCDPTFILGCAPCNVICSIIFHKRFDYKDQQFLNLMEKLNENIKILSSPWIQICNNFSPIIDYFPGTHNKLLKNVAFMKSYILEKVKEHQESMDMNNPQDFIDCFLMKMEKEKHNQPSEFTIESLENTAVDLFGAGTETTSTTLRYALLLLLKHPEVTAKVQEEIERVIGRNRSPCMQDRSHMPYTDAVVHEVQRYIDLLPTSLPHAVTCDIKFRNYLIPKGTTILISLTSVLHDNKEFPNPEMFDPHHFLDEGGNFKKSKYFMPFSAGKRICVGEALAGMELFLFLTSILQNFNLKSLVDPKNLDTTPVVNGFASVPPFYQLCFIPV
T2 sequence (P33261 whole entry): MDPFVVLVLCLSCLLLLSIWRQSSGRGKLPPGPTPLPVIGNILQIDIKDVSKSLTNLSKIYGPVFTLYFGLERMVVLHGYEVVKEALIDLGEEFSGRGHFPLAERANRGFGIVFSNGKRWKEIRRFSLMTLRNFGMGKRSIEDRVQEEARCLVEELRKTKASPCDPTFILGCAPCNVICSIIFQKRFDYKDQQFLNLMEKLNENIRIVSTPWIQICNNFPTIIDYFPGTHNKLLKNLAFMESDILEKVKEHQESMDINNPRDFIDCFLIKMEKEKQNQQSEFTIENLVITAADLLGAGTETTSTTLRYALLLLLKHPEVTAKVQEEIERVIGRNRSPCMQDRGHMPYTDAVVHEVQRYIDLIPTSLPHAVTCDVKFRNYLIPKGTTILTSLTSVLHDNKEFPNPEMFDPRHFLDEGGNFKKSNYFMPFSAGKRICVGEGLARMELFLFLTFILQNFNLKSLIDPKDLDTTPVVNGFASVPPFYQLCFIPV
T1 sequence (P20813 whole entry): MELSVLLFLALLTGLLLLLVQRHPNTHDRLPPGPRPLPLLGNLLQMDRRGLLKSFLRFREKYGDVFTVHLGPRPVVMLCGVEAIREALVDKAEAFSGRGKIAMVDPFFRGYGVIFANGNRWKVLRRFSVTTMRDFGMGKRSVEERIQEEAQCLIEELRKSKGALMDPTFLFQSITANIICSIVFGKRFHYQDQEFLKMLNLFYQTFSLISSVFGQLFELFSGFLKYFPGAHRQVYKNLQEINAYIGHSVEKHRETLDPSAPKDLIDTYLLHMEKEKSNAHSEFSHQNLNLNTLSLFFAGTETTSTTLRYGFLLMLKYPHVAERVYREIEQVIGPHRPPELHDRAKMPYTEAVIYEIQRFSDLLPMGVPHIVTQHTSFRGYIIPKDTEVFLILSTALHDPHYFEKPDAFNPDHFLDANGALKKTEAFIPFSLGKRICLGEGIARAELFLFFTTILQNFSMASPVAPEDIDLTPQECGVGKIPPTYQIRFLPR

## CN1CCN(c2nc(NCCN3CCOCC3)c3nc(Cl)c(NCCN4CCOCC4)nc3n2)CC1 [JB6121, 6-chloro-2-(4-methylpiperazin-1-yl)-N^4,N^7-bis(2-morpholinoethyl)pteridine-4,7-diamine]
[1]
  Papp A→B: 1.2 ×10⁻⁶ cm/s
[2]; 10 μM
  % Ligand Inhibition, M (non-selective) Muscarinic Receptor: 63.1%
[2]; most-likely, estimated from 10 μM result
  IC50: > 5 µM
[3]; 0.39 mg/kg PO daily x7 days
  AUC(0-t)/D: 24.8 ng · h/mL/mg/kg/day
  Cmax/D: 13.4 ng/mL/mg/kg/day
  AUC(0-t): 9.68 ng·h/mL
  Cmax: 5.24 ng/mL
  Tmax: 3.8 h
  concentration at 2 h: 2.5 ng/mL
  concentration at 3 h: 3.88 ng/mL
  concentration at 4 h: 5.57 ng/mL
  concentration at 5 h: 6.47 ng/mL
  AUC: 133 ng·h/mL
  half-life: 525 min
[3]; 1.56 mg/kg PO daily x7 days
  AUC(0-t)/D: 13.6 ng · h/mL/mg/kg/day
  Cmax/D: 6.96 ng/mL/mg/kg/day
  AUC(0-t): 21.3 ng·h/mL
  Cmax: 10.9 ng/mL
  Tmax: 4 h
  concentration at 2 h: 3.93 ng/mL
  concentration at 3 h: 8.2 ng/mL
  concentration at 4 h: 7.8 ng/mL
  concentration at 5 h: 7.76 ng/mL
  AUC: 231 ng·h/mL
  half-life: 1270 min
[3]; 6.25 mg/kg PO daily x7 days
  AUC(0-t)/D: 34.8 ng · h/mL/mg/kg/day
  Cmax/D: 15.2 ng/mL/mg/kg/day
  AUC(0-t): 217 ng·h/mL
  Cmax: 95 ng/mL
  Tmax: 3.2 h
  concentration at 2 h: 27 ng/mL
  concentration at 3 h: 94.8 ng/mL
  concentration at 4 h: 77.8 ng/mL
  concentration at 5 h: 63.8 ng/mL
  AUC: 609 ng·h/mL
  half-life: 245 min
[3]; 25 mg/kg PO daily x7 days
  AUC(0-t)/D: 63 ng · h/mL/mg/kg/day
  Cmax/D: 28.4 ng/mL/mg/kg/day
  AUC(0-t): 1570 ng·h/mL
  Cmax: 711 ng/mL
  Tmax: 3 h
  concentration at 2 h: 401 ng/mL
  concentration at 3 h: 711 ng/mL
  concentration at 4 h: 487 ng/mL
  concentration at 5 h: 366 ng/mL
  AUC: 2770 ng·h/mL
  half-life: 132 min
LogD, pH 7.4
  logD: 0.995
[4]
  inhibition at 10 µM: 53.5%
[5]
  fraction unbound: 0.13
CYP2B6
  CYP2B6 Mean % Control: 58.2%
CYP2C19
  CYP2C19 Mean % Control: 92.9%
CYP2C9
  CYP2C9 Mean % Control: 46.7%
